Earlier results as cited in patent US20090053769A1, “HETEROLOGOUS PRODUCTION OF NATURAL PRODUCTS IN BACTERIA” (University of Southern California, priority 2007, published 2009).
Positions of bridges follow the written chain, without caps; N, C: chain ends. Non-standard residues stand in square brackets, D forms with d. Residues, ends and D or L forms follow the SMILES beside them. Chains are numbered I, II in the order given. *: point of attachment. Quinoxaline2carbonyl = O=C(c1cnc2ccccc2n1)*; NMeV = CN[CH](C(=O)O)C(C)C; NMeC = CN[CH](CS)C(=O)O

Conditions: general statement on antibacterial, anticancer and antiviral activities, reference 24

SMILES | potency
CC1NC(=O)C(NC(=O)c2cnc3ccccc3n2)COC(=O)C(C(C)C)N(C)C(=O)C2CSSCC(C(=O)N(C)C(C(C)C)C(=O)OCC(NC(=O)c3cnc4ccccc4n3)C(=O)NC(C)C(=O)N2C)N(C)C1=O (centres unmarked) [compound 2, triostin A] (I: Quinoxaline2carbonyl-SA[NMeC][NMeV] / II: Quinoxaline2carbonyl-SA[NMeC][NMeV]; ester I:1-II:C, I:C-II:1; disulfide I:3-II:3; configuration not given here) | nanomolar potency
CS[C@H]1SC[C@H]2C(=O)N(C)[C@@H](C(C)C)C(=O)OC[C@@H](NC(=O)c3cnc4ccccc4n3)C(=O)N[C@@H](C)C(=O)N(C)[C@@H]1C(=O)N(C)[C@@H](C(C)C)C(=O)OC[C@@H](NC(=O)c1cnc3ccccc3n1)C(=O)N[C@@H](C)C(=O)N2C [compound 1, echinomycin] | nanomolar potency
